From patent US20130172246A1, “INSULIN GLARGINE VERSUS METFORMIN FOR THE FIRST-LINE TREATMENT OF EARLY TYPE-2 DIABETES” (priority 2011, published 2013)

Key:
Assay type in all cases: in vivo, human
type 2 diabetes patients [1] = assay: Laboratory analyses in the clinical trial: HbA1c, plasma glucose, lipids, hsCRP
Description: Test meal: On the morning of the 2nd day of the CGM, there is a standardized test meal in the trial center. This test meal (TM) consists of 95 g of whole-wheat bread, 20 g of margarine, 25 g of fruit preserves, 25 g of cheese, 200 ml of orange juice, 200 ml of milk mix with banana, strawberry or cocoa with a total of 560 Kcal. Blood is taken from the patient prior to the TM (after night-time fasting period of at least 8 hours). […] From the 1st bite, the time is measured, and after 2 h have elapsed, a 2nd blood collection is performed. During the TM and during the two hours thereafter, the patient should move as little as possible so as not to falsify the monitoring.
Fasting blood is collected between 7 and 9 o'clock in the morning when the patient turns up at the center.
Laboratory analyses: The blood samples for the clinical laboratory tests are analyzed in the central laboratory and the local laboratories according to standardized conditions. The central laboratory and the local laboratories provide on request corresponding documentation (e.g., normal value tables, round-robin test certificates in accordance with RiLiBÄK (Guidelines of the German Medical Association)) for the trial master file. The central laboratory is responsible for the collection, transport and analysis of the blood samples and instructs the trial center on sample management.
The patients were treated with either metformin (MET, 1000 mg b.i.d. (n=3)) or insulin glargine (GLA) q.d. just before bedtime (n=3). […] At the start and end of the study, the HbA1c level and the plasma glucose, proinsulin and C-peptide concentrations were determined. […] All the patients received a standardized test meal on the second day of the continuous glucose monitoring for comparison of the interindividual postprandial (pp) glucose excursions.

type 2 diabetes patients [2] = assay: Pilot study with insulin glargine with a CGMS; settings: compared to metformin
type 2 diabetes patients [3] = assay: Parameters of beta-cell function (insulin, proinsulin, C-peptide, HOMA) fasting and 2 h after test meal
Description: Below is a list of the various target parameters: • Protection of the β-cells by early insulin therapy • C-Peptide (fasting and 2 h pp after TM) • Proinsulin (fasting and 2 h pp after TM) • Glycemic variability: • Glycemic load • Standard deviation (SD), • MAGE • HbA1c • Anti-inflammatory action of insulin: • Biomarkers of subclinical inflammation (fasting and 2 h pp) • hsCRP, • PAI-1, • Leukocyte count • Back-up samples for determining • MMP9 • ADMA • Adiponectin • Effect on endothelial function • Endothelial function at ball of thumb using laser Doppler (O2C) • Effect on renal function • Microalbuminuria (albumin/creatinine ratio) • Serum creatinine • Risk of hypoglycemia • Hypoglycemic intervals (time<3 mmol glucose) during CGM over 48 hours (day 2+3 after TM) • Free fatty acids
Test meal: On the morning of the 2nd day of the CGM, there is a standardized test meal in the trial center. This test meal (TM) consists of 95 g of whole-wheat bread, 20 g of margarine, 25 g of fruit preserves, 25 g of cheese, 200 ml of orange juice, 200 ml of milk mix with banana, strawberry or cocoa with a total of 560 Kcal. Blood is taken from the patient prior to the TM (after night-time fasting period of at least 8 hours). Subsequently, the TM should be eaten within 15 min. From the 1st bite, the time is measured, and after 2 h have elapsed, a 2nd blood collection is performed. During the TM and during the two hours thereafter, the patient should move as little as possible so as not to falsify the monitoring.
• HbA1c chromatographically by HLPC (device: TOSOH A1c) • Plasma glucose by enzymatic UV test HK (device: Selectra) • Creatinine in urine by PAP test (enzyme-photometrically) (device: Selectra) • Albumin in urine (spontaneous) by immunoturbidimetric method (device: Selectra) • Microalbuminuria (calculated: albumin/creatinine ratio) • Serum creatinine enzyme-photometrically by means of creatinine PAP test (device: Selectra) • ALAT, ASAT by optimized UV method according to IFCC (device: Selectra) • Insulin by ELISA (solid-phase enzyme immunoassay; device: Anthos) • C-peptide by ELISA (solid-phase enzyme immunoassay; device: Anthos) • Proinsulin (intact) (solid-phase enzyme immunoassay; device: Anthos) • Triglycerides by GPO-PAP method (device: Selectra) • HDL cholesterol by enzymatic test (device: Selectra) • LDL cholesterol by enzymatic test (device: Selectra) • Free fatty acids by photometric method (NEFA) (device: Selektra) • hsCRP by immunoturbidimetric method (device: Selectra) • PAI-1 (plasminogen activator inhibitor active antigen) bioimmunoassay • Leukocyte count by electronic counting • Pregnancy test (urine dipstick)
In the study in the previous examples, 75 patients (45 men, 30 women, mean age: 60.7±9.2 years) were examined, whose first diagnosis of type 2 diabetes dated back to less than 5 years and whose HbA1c level was between 6.5 and 8.5%. The patients were treated with either metformin (MET, 1000 mg b.i.d. (n=3)) or insulin glargine (GLA) q.d. just before bedtime (n=3). The insulin dose was adjusted for a target plasma glucose concentration (FPG) of ≦5.6 mmol/L according to a standardized titration algorithm. At the start and end of the study, the HbA1c level and the plasma glucose, proinsulin and C-peptide concentrations were determined. […] All the patients received a standardized test meal on the second day of the continuous glucose monitoring for comparison of the interindividual postprandial (pp) glucose excursions.

[4] = early treatment, compared to standard treatment with MET
[5] = per protocol, change visit 1 to visit 8, mean (SD)
[6] = per protocol, change visit 1 to visit 8, mean (SD), unit as in Table 4
[7] = per protocol, week 36, mean (SD)
[8] = per protocol, week 36, mean (SD), unit as in Table 4
[9] = per protocol, change visit 1 to visit 8, mean

Substance: Insulin glargine
- HbA1c level at end of study (type 2 diabetes patients [1]; after 36 weeks of treatment, GLA vs. MET n.s.): 6.4%
- HbA1c level at start of study (type 2 diabetes patients [1]; baseline value of the 'x to y' pair): 7.2%
- control of the fasting glucose level and of the overall glycemic situation (type 2 diabetes patients [1]; [4]): more effective control
- Triglycerides - change (type 2 diabetes patients [1]; [5]): −0.2 (1.8) mmol/l
- HDL - change (type 2 diabetes patients [1]; [6]): 0.1 (0.2) mmol/l
- HbA1c - change (type 2 diabetes patients [1]; [6]): −0.8 (0.7) %
- LDL - change (type 2 diabetes patients [1]; [6]): −0.1 (0.7) mmol/l
- Plasma glucose - change, 2 h after test meal (type 2 diabetes patients [1]; [6]): −2.8 (3.2) mmol/l
- Plasma glucose - change, Fasting (type 2 diabetes patients [1]; [6]): −3.1 (2.5) mmol/l
- Total chol. - change (type 2 diabetes patients [1]; [6]): −0.04 (0.8) mmol/l
- hsCRP - change (type 2 diabetes patients [1]; [6]): 0.1 (3.0) mg/l
- Triglycerides - visit 8 (type 2 diabetes patients [1]; [7]): 2.2 (2.0) mmol/l
- HDL - visit 8 (type 2 diabetes patients [1]; [8]): 1.3 (0.3) mmol/l
- HbA1c - visit 8 (type 2 diabetes patients [1]; [8]): 6.4 (0.4) %
- LDL - visit 8 (type 2 diabetes patients [1]; [8]): 3.1 (0.8) mmol/l
- Plasma glucose - visit 8, 2 h after test meal (type 2 diabetes patients [1]; [8]): 8.3 (2.5) mmol/l
- Plasma glucose - visit 8, Fasting (type 2 diabetes patients [1]; [8]): 6.1 (1.1) mmol/l
- Total chol. - visit 8 (type 2 diabetes patients [1]; [8]): 5.2 (1.0) mmol/l
- hsCRP - 8th visit (type 2 diabetes patients [1]; [8]): 3.1 (2.9) mg/l
- reduction in the FPG level (Δ) (type 2 diabetes patients [1]; start to end of study (36 weeks), GLA vs. MET p<0.001): 3.1 ± 2.5 mmol/L
- control of postprandial hyperglycemia (type 2 diabetes patients [2]): improved control of postprandial hyperglycemia compared to metformin
- ratio of proinsulin to C-peptide (type 2 diabetes patients [3]; after treatment, indicating improvement in beta-cell function): significant reduction
- beta-cell function (type 2 diabetes patients [3]; [4]): improvement in beta-cell function
- Insulin-C-peptide ratio - change, 2 h after test meal (type 2 diabetes patients [3]; [9]): −24587.4
- Insulin-C-peptide ratio - change, Fasting (type 2 diabetes patients [3]; [9]): 46799.3
- Proinsulin-C-peptide ratio - change, 2 h after test meal (type 2 diabetes patients [3]; [9]): −2496.6
- Proinsulin-C-peptide ratio - change, Fasting (type 2 diabetes patients [3]; [9]): −1174.8
- HOMA - change (type 2 diabetes patients [3]; [5]): 77.2 (98.0)
- Insulin-proinsulin ratio - change, 2 h after test meal (type 2 diabetes patients [3]; [5]): 8.2 (9.4)
- Insulin-proinsulin ratio - change, Fasting (type 2 diabetes patients [3]; [5]): 16.4 (12.4)
- C-peptide - change, 2 h after test meal (type 2 diabetes patients [3]; [6]): −0.6 (2.4) nmol/l
- C-peptide - change, Fasting (type 2 diabetes patients [3]; [6]): −1.2 (1.1) nmol/l
- Insulin - change, 2 h after test meal (type 2 diabetes patients [3]; [6]): 6.5 (38.4) mU/l
- Insulin - change, Fasting (type 2 diabetes patients [3]; [6]): 2.7 (6.7) mU/l
- Proinsulin - change, 2 h after test meal (type 2 diabetes patients [3]; [6]): −11.1 (26.8) pmol/l
- Proinsulin - change, Fasting (type 2 diabetes patients [3]; [6]): −7.6 (10.8) pmol/l
- Insulin-C-peptide ratio - visit 8, 2 h after test meal (type 2 diabetes patients [3]; per protocol, week 36, mean): 59822.8
- Insulin-C-peptide ratio - visit 8, Fasting (type 2 diabetes patients [3]; per protocol, week 36, mean): 80748.4
- Proinsulin-C-peptide ratio - visit 8, 2 h after test meal (type 2 diabetes patients [3]; per protocol, week 36, mean): 3578.2
- Proinsulin-C-peptide ratio - visit 8, Fasting (type 2 diabetes patients [3]; per protocol, week 36, mean): 3537.8
- HOMA - visit 8 (type 2 diabetes patients [3]; [7]): 127.9 (99.3)
- Insulin-proinsulin ratio - visit 8, 2 h after test meal (type 2 diabetes patients [3]; [7]): 20.7 (11.8)
- Insulin-proinsulin ratio - visit 8, Fasting (type 2 diabetes patients [3]; [7]): 24.5 (11.7)
- C-peptide - visit 8, 2 h after test meal (type 2 diabetes patients [3]; [8]): 6.7 (3.1) nmol/l
- C-peptide - visit 8, Fasting (type 2 diabetes patients [3]; [8]): 1.6 (0.9) nmol/l
- Insulin - visit 8, 2 h after test meal (type 2 diabetes patients [3]; [8]): 62.6 (51.8) mU/l
- Insulin - visit 8, Fasting (type 2 diabetes patients [3]; [8]): 14.6 (8.8) mU/l
- Proinsulin - visit 8, 2 h after test meal (type 2 diabetes patients [3]; [8]): 26.8 (29.0) pmol/l
- Proinsulin - visit 8, Fasting (type 2 diabetes patients [3]; [8]): 5.4 (5.0) pmol/l
